Consider one substance from patent US20060147932A1, “Methods of screening for modulators of nerve growth factor” (priority 2003, published 2006).

The experiment has as its system Adult rat DRG neurons. As to the kind of experiment: Measurement of gene expression in adult DRG neurons by real-time PCR. The experiment is classed as cell-based. As for the experimental part:
Dorsal root ganglia were dissected from adult (3-6 months old) Sprague-Dawley rats, and dissociated and cultured by standard techniques (Lindsay, 1988). Briefly, ganglia were stripped of their sheaths, and incubated in 0.125% collagenase type IV (Worthington) in Ham's F12 with 10% HIHS for two 90 minute periods at 37° C. They were then washed extensively and incubated in 0.25% trypsin (Worthington) in HBSS at 37 degrees for 30 minutes. After inactivation of trypsin with 10% heat inactivated horse serum and further washing, the ganglia were dissociated by gentle trituration through a flame polished Pasteur pipet.
Neurons were plated on polyornithine and laminin coated 96-well plates in defined serum free medium consisting of Hams F-14 nutrient mixture with plus 2 mM glutamine, 0.35% bovine serum albumin (Albumax II, Gibco-BRL or Pathocyte-5, ICN), 60 ng/ml progesterone, 16 ug/ml putrescine, 400 ng/ml L-thyroxine, 38 ng/ml sodium selenite, 340 ng/ml tri-iodo-thyronine, 60 ug/ml penicillin and 100 ug/ml streptomycin (Sigma) (Davies et al., 1993). NGF (10 ng/ml) and test compounds were added to the wells shortly before or after plating as described below.
Adult rat DRG neurons were plated in 96 well plates, exposed to different concentrations of NGF for 120 hours and specific mRNA expression was analysed using the Stratagene Mx4000 real time PCR instrument. These conditions allow detection of greater than 15-fold increase in substance P mRNA content relative to GAPDH mRNA at the highest concentration of NGF used (FIG. 1). In addition, it was shown that a greater than 3-fold reduction in galanin mRNA level relative to GAPDH mRNA at the highest concentration of NGF can be measured (FIG. 1).
After culture as described above for 5 days RNA was extracted and the ratio of substance P mRNA expression determined relative to GAPDH mRNA for RNA from each of the culture wells by RT-PCR. RT-PCR was also performed to determine the ratio of galanin to GAPDH mRNA for each RNA sample. […]
(In qPCR the cycle at which signal appears reflects the starting amount.)

On to “NGF: nerve growth factor, the first neurotrophin identified; acts through TrkA and p75 receptors”, for which the “reduction in galanin mRNA level relative to GAPDH mRNA” value (highest concentration of NGF (range up to 50 ng/ml), 120 hours exposure, relative to cultures with no added NGF (FIG. 1)) was “greater than 3 fold”. Besides, under “highest concentration of NGF used (range up to 50 ng/ml), 120 hours exposure, 96 well plates, relative to cultures with no added NGF (FIG. 1)”, the “increase in substance P mRNA content relative to GAPDH mRNA” value is “greater than 15 fold”. Also, the “combined difference in gene expression (substance P and galanin combined in a single assay) in the absence or presence of NGF” value (substance P mRNA relative to galanin mRNA, 120 hours exposure (FIG. 1)) is recorded as “approximately 50 fold”.
